What all share (format): cell-based
The subject of one test is A431 cells. The experiment in a line: Cellular proliferation (Alamar Blue) assay, A431 cells. The settings on record: Homo sapiens, A-431, 72 hr incubation. As for the experimental part:
(§1) Example 2: Cellular Proliferation (Alamar Blue) Assays
(§2) • 1. EGFR(D770_N771insSVD) expressing Ba/F3 stable cell line • 2. EGFR (A767_dupASV) expressing Ba/F3 stable cell line • 3. A431 cells • 4. EGFR (H773insNPH) expressing Ba/F3 stable cell line • 5. HER2 (A775_G775insYVMA) expressing Ba/F3 stable cell line
(§3) • 1. Seed cells at 5000 for A431 and 15,000 cells for Ba/F3 in 100 μL/well in complete media (for A431: DMEM with 10% FBS and for Ba/F3 cells: RPMI with 10% FBS) in • 96-well tissue culture plate. Leave outer wells without cells for background measurements. Incubate at 37 degree Celsius in 5% C02 humidified incubator for 16-18 hours. • 2. Add 0.025 ml of 5× concentration compound dilution or DMSO control. Final compound concentration range is 10-0.0005 μM prepared in 3-fold serial dilutions. Incubate for 72 hr at 37 degree Celsius in 5% CO2 humidified incubator. • 3. Add 0.0125 ml Alamar Blue™ reagent to each well with multi-channel pipette and tap gently on each side of the plate to mix. Incubate for 3 hours at 37 degree Celsius in 5% CO2 humidified incubator. • 4. Read plates on fluorescence reader (Tecan Spark Control, Device: Spark, Serial #: 1801006040) at 540 nm excitation, 590 nm emission wavelength. • 5. Data analysis was performed using XLfit 5.5.0.5.

In test [1] the target is EGFR (A767_dupASV) expressing Ba/F3 stable cell line (Homo sapiens, UniProt P00533, DUP767-769, cells depend on it). Briefly: Cellular proliferation (Alamar Blue) assay, EGFR (A767_dupASV) Ba/F3. The settings on record: 72 hr incubation, read-out: A767 IC50. Here is the method:
as §1, §2, §3
(In general: Resazurin is reduced to fluorescent resorufin, in cell work by metabolically active cells.)

Test [2] addresses EGFR (H773insNPH) expressing Ba/F3 stable cell line (Homo sapiens, UniProt P00533, DUP771-773, cells depend on it). The experiment in a line: Cellular proliferation (Alamar Blue) assay, EGFR (H773insNPH) Ba/F3. The settings on record: 72 hr incubation, read-out: NPH IC50. Here is the method: as §1, §2, §3
Test [3] deals with HER2 (A775_G775insYVMA) expressing Ba/F3 stable cell line (Homo sapiens, UniProt P04626, DUP772-775, cells depend on it). Briefly: Cellular proliferation (Alamar Blue) assay, HER2 (A775_G775insYVMA) Ba/F3. The settings on record: 72 hr incubation, read-out: YVMA IC50. Here is the method: as §1, §2, §3
Chain of HER2 (A775_G775insYVMA) expressing Ba/F3 stable cell line (P04626 with tags, fused parts or gaps DUP772-775): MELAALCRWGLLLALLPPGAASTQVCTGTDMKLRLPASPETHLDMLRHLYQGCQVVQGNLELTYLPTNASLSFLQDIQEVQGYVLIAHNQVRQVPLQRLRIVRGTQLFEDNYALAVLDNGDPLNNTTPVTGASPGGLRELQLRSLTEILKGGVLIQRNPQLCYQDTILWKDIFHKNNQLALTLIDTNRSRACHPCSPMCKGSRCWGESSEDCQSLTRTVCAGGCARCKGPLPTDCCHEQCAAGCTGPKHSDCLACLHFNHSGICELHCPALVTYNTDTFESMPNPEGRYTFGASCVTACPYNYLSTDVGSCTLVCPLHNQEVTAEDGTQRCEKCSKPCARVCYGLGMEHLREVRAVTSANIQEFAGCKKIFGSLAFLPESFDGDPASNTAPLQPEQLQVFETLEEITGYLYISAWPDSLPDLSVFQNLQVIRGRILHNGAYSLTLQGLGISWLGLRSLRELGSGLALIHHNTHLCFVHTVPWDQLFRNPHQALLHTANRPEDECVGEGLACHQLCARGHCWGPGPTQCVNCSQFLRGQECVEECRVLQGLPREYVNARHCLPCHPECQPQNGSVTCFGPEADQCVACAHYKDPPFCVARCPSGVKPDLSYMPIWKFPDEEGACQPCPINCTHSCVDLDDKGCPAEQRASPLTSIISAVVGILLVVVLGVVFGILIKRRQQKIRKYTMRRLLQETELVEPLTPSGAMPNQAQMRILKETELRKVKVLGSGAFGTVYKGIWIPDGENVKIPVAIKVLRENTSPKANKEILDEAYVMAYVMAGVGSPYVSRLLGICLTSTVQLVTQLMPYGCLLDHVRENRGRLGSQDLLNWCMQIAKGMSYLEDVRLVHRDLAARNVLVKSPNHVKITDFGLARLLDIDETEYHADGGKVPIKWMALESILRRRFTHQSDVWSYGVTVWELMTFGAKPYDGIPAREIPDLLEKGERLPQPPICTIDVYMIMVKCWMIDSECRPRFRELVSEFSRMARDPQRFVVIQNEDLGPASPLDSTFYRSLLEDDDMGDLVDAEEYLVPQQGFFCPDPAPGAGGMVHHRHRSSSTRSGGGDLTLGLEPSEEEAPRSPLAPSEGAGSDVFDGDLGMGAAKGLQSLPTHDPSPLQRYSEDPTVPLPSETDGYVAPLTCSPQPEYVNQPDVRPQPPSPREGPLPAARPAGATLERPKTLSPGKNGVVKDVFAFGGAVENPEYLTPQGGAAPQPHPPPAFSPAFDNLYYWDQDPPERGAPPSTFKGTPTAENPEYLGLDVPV
Test [4] deals with EGFR(D770_N771insSVD) expressing Ba/F3 stable cell line (Homo sapiens, UniProt P00533, DUP768-770, cells depend on it). Briefly: Cellular proliferation (Alamar Blue) assay, EGFR(D770_N771insSVD) Ba/F3. The settings on record: 72 hr incubation, read-out: D770 IC50. As for the experimental part: as §1, §2, §3
Chain of EGFR(D770_N771insSVD) expressing Ba/F3 stable cell line (P00533 with tags, fused parts or gaps DUP768-770): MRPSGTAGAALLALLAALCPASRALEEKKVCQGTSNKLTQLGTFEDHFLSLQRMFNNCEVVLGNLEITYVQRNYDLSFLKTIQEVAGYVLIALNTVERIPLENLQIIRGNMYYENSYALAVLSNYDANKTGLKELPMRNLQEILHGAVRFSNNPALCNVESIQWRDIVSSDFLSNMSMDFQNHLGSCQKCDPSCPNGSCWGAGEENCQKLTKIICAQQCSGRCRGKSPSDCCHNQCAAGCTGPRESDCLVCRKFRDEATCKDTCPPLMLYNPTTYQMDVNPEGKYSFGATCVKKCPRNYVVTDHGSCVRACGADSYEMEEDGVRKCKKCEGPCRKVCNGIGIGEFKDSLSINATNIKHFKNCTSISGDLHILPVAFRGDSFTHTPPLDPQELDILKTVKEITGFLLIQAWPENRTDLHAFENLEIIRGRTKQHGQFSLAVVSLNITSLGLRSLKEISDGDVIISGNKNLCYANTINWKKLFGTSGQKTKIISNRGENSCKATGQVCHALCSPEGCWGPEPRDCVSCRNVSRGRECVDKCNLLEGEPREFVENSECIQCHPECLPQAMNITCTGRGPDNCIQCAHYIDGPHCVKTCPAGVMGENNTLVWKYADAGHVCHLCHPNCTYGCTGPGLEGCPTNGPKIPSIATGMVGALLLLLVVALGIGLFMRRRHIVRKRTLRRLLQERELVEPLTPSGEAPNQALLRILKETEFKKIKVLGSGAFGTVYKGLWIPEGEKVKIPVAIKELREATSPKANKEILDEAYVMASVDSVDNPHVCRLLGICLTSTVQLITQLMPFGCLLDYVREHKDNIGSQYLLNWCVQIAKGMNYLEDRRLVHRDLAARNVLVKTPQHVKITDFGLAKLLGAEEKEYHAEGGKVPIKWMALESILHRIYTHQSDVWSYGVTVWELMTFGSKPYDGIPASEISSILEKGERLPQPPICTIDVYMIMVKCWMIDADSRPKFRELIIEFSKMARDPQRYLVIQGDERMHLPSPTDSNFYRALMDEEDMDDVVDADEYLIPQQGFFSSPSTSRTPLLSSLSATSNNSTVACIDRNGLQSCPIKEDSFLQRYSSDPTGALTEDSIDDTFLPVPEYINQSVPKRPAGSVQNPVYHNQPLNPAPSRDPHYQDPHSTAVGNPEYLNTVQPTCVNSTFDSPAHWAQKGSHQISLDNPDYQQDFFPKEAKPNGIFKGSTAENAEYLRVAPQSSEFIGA

Each structure is given as a SMILES string.

Chain of EGFR (A767_dupASV) expressing Ba/F3 stable cell line (P00533 with tags, fused parts or gaps DUP767-769): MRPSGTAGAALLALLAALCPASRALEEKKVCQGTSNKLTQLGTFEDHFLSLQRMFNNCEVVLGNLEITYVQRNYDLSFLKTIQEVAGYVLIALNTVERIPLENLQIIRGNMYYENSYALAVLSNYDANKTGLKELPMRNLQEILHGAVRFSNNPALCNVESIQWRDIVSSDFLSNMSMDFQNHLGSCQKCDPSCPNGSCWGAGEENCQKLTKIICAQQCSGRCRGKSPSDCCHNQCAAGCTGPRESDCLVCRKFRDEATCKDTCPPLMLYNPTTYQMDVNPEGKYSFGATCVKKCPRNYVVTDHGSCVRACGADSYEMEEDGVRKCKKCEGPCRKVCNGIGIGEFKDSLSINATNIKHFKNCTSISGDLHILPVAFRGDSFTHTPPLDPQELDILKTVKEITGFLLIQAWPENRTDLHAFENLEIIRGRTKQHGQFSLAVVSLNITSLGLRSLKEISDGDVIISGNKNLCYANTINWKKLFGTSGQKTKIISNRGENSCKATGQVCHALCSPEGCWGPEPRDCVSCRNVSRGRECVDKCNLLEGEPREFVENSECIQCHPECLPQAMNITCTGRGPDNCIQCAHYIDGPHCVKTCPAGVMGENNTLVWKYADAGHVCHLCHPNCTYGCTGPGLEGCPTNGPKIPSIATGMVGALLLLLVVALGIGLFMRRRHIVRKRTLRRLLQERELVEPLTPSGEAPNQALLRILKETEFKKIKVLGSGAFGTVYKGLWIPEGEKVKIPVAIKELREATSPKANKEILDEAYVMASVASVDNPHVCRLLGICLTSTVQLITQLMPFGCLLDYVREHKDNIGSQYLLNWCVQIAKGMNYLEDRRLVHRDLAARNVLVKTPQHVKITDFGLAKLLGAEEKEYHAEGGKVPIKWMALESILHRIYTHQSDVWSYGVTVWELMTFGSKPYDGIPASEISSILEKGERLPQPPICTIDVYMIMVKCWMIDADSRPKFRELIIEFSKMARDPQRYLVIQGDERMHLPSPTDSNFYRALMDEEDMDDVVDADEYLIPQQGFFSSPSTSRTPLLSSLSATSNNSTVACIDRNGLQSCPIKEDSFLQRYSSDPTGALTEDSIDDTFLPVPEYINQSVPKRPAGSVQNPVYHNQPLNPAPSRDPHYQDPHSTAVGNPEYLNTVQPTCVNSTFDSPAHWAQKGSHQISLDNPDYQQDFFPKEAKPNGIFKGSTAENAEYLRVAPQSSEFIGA
Chain of EGFR (H773insNPH) expressing Ba/F3 stable cell line (P00533 with tags, fused parts or gaps DUP771-773): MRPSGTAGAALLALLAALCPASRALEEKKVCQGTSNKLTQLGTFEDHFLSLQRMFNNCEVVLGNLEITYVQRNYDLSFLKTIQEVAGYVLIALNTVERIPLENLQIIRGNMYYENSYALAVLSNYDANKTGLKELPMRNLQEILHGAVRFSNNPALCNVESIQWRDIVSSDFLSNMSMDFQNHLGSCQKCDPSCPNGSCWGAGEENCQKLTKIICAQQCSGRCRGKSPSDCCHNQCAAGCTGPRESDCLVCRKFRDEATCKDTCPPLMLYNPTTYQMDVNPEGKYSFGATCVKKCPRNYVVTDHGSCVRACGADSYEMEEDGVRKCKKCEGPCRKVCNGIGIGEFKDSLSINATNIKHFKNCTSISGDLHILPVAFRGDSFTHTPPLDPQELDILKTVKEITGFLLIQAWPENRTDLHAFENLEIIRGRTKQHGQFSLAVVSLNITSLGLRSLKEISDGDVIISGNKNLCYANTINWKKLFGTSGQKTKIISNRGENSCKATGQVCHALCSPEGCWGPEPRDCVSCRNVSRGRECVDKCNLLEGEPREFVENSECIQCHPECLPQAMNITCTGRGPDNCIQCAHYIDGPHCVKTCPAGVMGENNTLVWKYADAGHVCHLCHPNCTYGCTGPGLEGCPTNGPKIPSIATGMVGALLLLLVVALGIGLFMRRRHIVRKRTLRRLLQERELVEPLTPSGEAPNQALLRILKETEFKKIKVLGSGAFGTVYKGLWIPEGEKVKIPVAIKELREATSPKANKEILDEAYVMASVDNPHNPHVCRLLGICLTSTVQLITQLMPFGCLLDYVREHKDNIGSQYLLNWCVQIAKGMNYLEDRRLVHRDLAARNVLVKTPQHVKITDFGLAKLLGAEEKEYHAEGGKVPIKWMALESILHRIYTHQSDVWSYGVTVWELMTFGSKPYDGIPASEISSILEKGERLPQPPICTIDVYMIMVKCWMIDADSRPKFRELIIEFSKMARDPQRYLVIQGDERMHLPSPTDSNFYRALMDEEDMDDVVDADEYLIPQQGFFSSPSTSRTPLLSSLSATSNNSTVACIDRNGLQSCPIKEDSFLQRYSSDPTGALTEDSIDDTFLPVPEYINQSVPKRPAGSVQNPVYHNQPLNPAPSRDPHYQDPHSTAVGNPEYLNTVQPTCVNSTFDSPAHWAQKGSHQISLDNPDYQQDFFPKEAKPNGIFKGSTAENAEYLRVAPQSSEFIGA

With `CN(C)C/C=C/C(=O)Nc1cccc(N2C(=O)N(Cc3ccccc3)CCc3cnc(Nc4cn(C)nc4Cl)nc32)c1` [Compound 1, (E)-N-(3-(7-benzyl-2-((3-chloro-1-methyl-1H-pyrazol-4-yl)amino)-8-oxo-5,6,7,8-tetrahydro-9H-pyrimido[4,5-d][1,3]diazepin-9-yl)phenyl)-4-(dimethylamino)but-2-enamide], the half-inhibitory concentration (IC50) in the test with A431 cells is 132 nM. Besides, the GI50 in test [1] was found to be 54 nM; in test [2] it was 86 nM; in test [3] it was 31 nM; in test [4], 105 nM.

Turning to `Cn1cc(Nc2ncc3c(n2)N(c2cccc(NC(=O)/C=C/CN4CCCCC4)c2)C(=O)N(Cc2ccccc2)CC3)c(Cl)n1` [Compound 3, (E)-N-(3-(7-benzyl-2-((3-chloro-1-methyl-1H-pyrazol-4-yl)amino)-8-oxo-5,6,7,8-tetrahydro-9H-pyrimido[4,5-d][1,3]diazepin-9-yl)phenyl)-4-(piperidin-1-yl)but-2-enamide], the IC50 with A431 cells is > 10000 nM. Also, the GI50 in test [1] is 42 nM; in test [2], 108 nM; in test [3], 31 nM; in test [4], 48 nM.

Consider `COC/C=C/C(=O)Nc1cccc(N2C(=O)N(Cc3ccccc3)CCc3cnc(Nc4cn(C)nc4Cl)nc32)c1` [Compound 4, (E)-N-(3-(7-benzyl-2-((3-chloro-1-methyl-1H-pyrazol-4-yl)amino)-8-oxo-5,6,7,8-tetrahydro-9H-pyrimido[4,5-d][1,3]diazepin-9-yl)phenyl)-4-methoxybut-2-enamide], for which the concentration for half-maximal inhibition (IC50) with A431 cells is > 10000 nM. For the same compound, the GI50 in test [1] was 104 nM; in test [2] it was 103 nM; in test [3], 125 nM; in test [4] it was 98 nM.

`C=CC(=O)Nc1cccc(N2C(=O)N(Cc3ccccc3)CCc3cnc(Nc4cn(C)nc4Cl)nc32)c1` [Compound 5, N-(3-(7-benzyl-2-((3-chloro-1-methyl-1H-pyrazol-4-yl)amino)-8-oxo-5,6,7,8-tetrahydro-9H-pyrimido[4,5-d][1,3]diazepin-9-yl)phenyl)acrylamide] had an IC50 in the test with A431 cells of 2 nM. The GI50 in test [1] came out at 12 nM; in test [2] it was 7 nM; in test [3], 12 nM; in test [4] it was 10 nM.

On to `Cn1cc(Nc2ncc3c(n2)N(c2cccc(NC(=O)/C=C/CF)c2)C(=O)N(Cc2ccccc2)CC3)c(Cl)n1` [Compound 6, (E)-N-(3-(7-benzyl-2-((3-chloro-1-methyl-1H-pyrazol-4-yl)amino)-8-oxo-5,6,7,8-tetrahydro-9H-pyrimido[4,5-d][1,3]diazepin-9-yl)phenyl)-4-fluorobut-2-enamide], for which, in the test with A431 cells, 8 nM corresponded to half-maximal inhibition (IC50). Besides, the GI50 came to 9 nM in test [1], 32 nM in test [2], 10 nM in test [3] and 12 nM in test [4].

In the test on A431 cells, `C=CC(=O)Nc1cccc(N2C(=O)N(Cc3ccccc3)CCc3cnc(Nc4cn(C5CCN(C)CC5)nc4Cl)nc32)c1` [Compound 7, N-(3-(7-benzyl-2-((3-chloro-1-(1-methylpiperidin-4-yl)-1H-pyrazol-4-yl)amino)-8-oxo-5,6,7,8-tetrahydro-9H-pyrimido[4,5-d][1,3]diazepin-9-yl)phenyl)acrylamide] returned an IC50 of 2 nM. The GI50 in test [1] is 27 nM; in test [2] it was 41 nM; in test [3], 24 nM; in test [4] it was 36 nM.

In the case of `C=CC(=O)Nc1cccc(N2C(=O)N(Cc3ccccc3)CCc3cnc(Nc4ccc(F)c(C)c4)nc32)c1` [Compound 9, N-(3-(7-benzyl-2-((4-fluoro-3-methylphenyl)amino)-8-oxo-5,6,7,8-tetrahydro-9H-pyrimido[4,5-d][1,3]diazepin-9-yl)phenyl)acrylamide], the concentration for half-maximal inhibition (IC50) in the test with A431 cells was 35 nM. Besides, the GI50 in test [1] amounted to 46 nM; in test [2], 95 nM; in test [3], 28 nM; in test [4], 45 nM.

On to `Cn1cc(Nc2ncc3c(n2)N(c2cccc(NC(=O)/C=C/CN4CCOCC4)c2)C(=O)N(Cc2ccccc2)CC3)c(Cl)n1` [Compound 10, (E)-N-(3-(7-benzyl-2-((3-chloro-1-methyl-1H-pyrazol-4-yl)amino)-8-oxo-5,6,7,8-tetrahydro-9H-pyrimido[4,5-d][1,3]diazepin-9-yl)phenyl)-4-morpholinobut-2-enamide], for which the IC50 in the test on A431 cells came to 8 nM. Moreover, the GI50 was determined as 43 nM in test [1], 94 nM in test [2], 20 nM in test [3] and 47 nM in test [4].

In the test with A431 cells, `C=CC(=O)Nc1cccc(N2C(=O)N(Cc3ccccc3)CCc3cnc(Nc4cn(C)nc4F)nc32)c1` [Compound 11, N-(3-(7-benzyl-2-((3-fluoro-1-methyl-1H-pyrazol-4-yl)amino)-8-oxo-5,6,7,8-tetrahydro-9H-pyrimido[4,5-d][1,3]diazepin-9-yl)phenyl)acrylamide] had an IC50 of 5 nM. The GI50 in test [1] was 11 nM; in test [2], 31 nM; in test [3] it was 7 nM; in test [4] it was 10 nM.

Consider `Cn1cc(Nc2ncc3c(n2)N(c2cccc(NC(=O)/C=C/CN4CCOCC4)c2)C(=O)N(c2ccccc2)CC3)c(Cl)n1` [Compound 32, (E)-N-(3-(2-((3-chloro-1-methyl-1H-pyrazol-4-yl)amino)-8-oxo-7-phenyl-5,6,7,8-tetrahydro-9H-pyrimido[4,5-d][1,3]diazepin-9-yl)phenyl)-4-morpholinobut-2-enamide], for which the IC50 with A431 cells is > 10000 nM. In addition, the GI50 came to 1160 nM in test [1], 3280 nM in test [3] and 1360 nM in test [4].

Take `Cn1cc(Nc2ncc3c(n2)N(c2cccc(NC(=O)/C=C/CN4CCCCC4)c2)C(=O)N(c2ccccc2)CC3)c(Cl)n1` [Compound 40, (E)-N-(3-(2-((3-chloro-1-methyl-1H-pyrazol-4-yl)amino)-8-oxo-7-phenyl-5,6,7,8-tetrahydro-9H-pyrimido[4,5-d][1,3]diazepin-9-yl)phenyl)-4-(piperidin-1-yl)but-2-enamide]: the half-inhibitory concentration (IC50) in the test on A431 cells was > 10000 nM. Also, the GI50 in test [1] worked out at 325 nM; in test [3], 536 nM; in test [4] it was 406 nM.

For the compound `CN(C)C/C=C/C(=O)Nc1cccc(N2C(=O)N(c3ccccc3)CCc3cnc(Nc4cccnc4F)nc32)c1` [Compound 44, (E)-4-(dimethylamino)-N-(3-(2-((2-fluoropyridin-3-yl)amino)-8-oxo-7-phenyl-5,6,7,8-tetrahydro-9H-pyrimido[4,5-d][1,3]diazepin-9-yl)phenyl)but-2-enamide], the half-maximal inhibitory concentration (IC50) with A431 cells is > 10000 nM. For the same compound, the GI50 in test [1] is 936 nM; in test [3], 1230 nM; in test [4], 1140 nM.

Consider `COC/C=C/C(=O)Nc1cccc(N2C(=O)N(c3ccccc3)CCc3cnc(Nc4cn(C)nc4Cl)nc32)c1` [Compound 46, (E)-N-(3-(2-((3-chloro-1-methyl-1H-pyrazol-4-yl)amino)-8-oxo-7-phenyl-5,6,7,8-tetrahydro-9H-pyrimido[4,5-d][1,3]diazepin-9-yl)phenyl)-4-methoxybut-2-enamide], for which, in the test with A431 cells, the half-maximal inhibitory concentration (IC50) was > 10000 nM. Besides, the GI50 in test [1] was 1130 nM; in test [3] it was 5950 nM; in test [4], 2770 nM.

The IC50 is the concentration that gives 50% inhibition.

The values above are taken from patent publication US20240217977A1, “DIAZEPANONE-FUSED PYRIMIDINE COMPOUNDS, COMPOSITIONS AND MEDICINAL APPLICATIONS THEREOF” (Blueprint Medicines Corporation, priority 2021, published 2024).
